Data on 68 sequences can be found in the supplement of paper PMC11208160.

A short description of this data set: recombinant UMI read abundance after kanamycin selection (control-corrected) (log10(CPM+1)); higher = more efficient recombination; extreme values may be limits of the assay; sequences stand for … in AGTGCAGAGAAAATCGGCCAGTTTTCTCTGCCTGCAGTCCGCATGCCGTGGGACCCCTTGGGTTCTAACCTGTTGCCTAGATTTATGCAGCGGACTGCCTTTCTCCCAAAGTGATAAACCGG…AGGTTGGTTTCACT; site = the 11-nt donor. An outline of the steps:
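Each donor and donor-binding-loop pair was tracked by a 12-nt UMI on a plasmid carrying a promoterless kanamycin gene. With a second plasmid supplying a fixed target and T7-inducible IS621 bridge recombinase, the pool was plated in Escherichia coli on IPTG (0.07 mM) plus kanamycin or unselected. Sequencing of recombinant UMIs across the donor–target junction gave counts expressed as log10(CPM+1) after replicate averaging and control-derived scaling.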
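Also: IS621 bridge recombinase in Escherichia coli cells against a fixed T5 target plasmid.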

As for “GATTGTCCATGGACCGGTTTTCCCGGTAATCCGTATTTGCT (site GATTCTCCTAG)”, the “recombinant UMI read abundance (log10)” value stood at 0.

Regarding “GATTGTCCATGGACCGGTTTTCCCGGTAATCCGTATTTGCT (site GATTGTCCTAG)”, the “recombinant UMI read abundance (log10)” value is 0.

As to “GATTGTCCATGGACCGGTTTTCCCGGTAATCCGTATTTGCT (site GATTTTCCTAG)”, the “recombinant UMI read abundance (log10)” value is 0.

As to “GATTTCGCATGGACCGGTTTTCCCGGTAATCCGTATTTGTC (site GATTTCGCTGA)”, the “recombinant UMI read abundance (log10)” value came out at 1.51.

For the sequence “GATTTGACATGGACCGGTTTTCCCGGTAATCCGTATTTGAC (site GATTAGACTGT)”, the “recombinant UMI read abundance (log10)” value worked out at 0.

As to “GATTTGACATGGACCGGTTTTCCCGGTAATCCGTATTTGAC (site GATTCGACTGT)”, the “recombinant UMI read abundance (log10)” value came to 0.

On to “GATTTGACATGGACCGGTTTTCCCGGTAATCCGTATTTGAC (site GATTGGACTGT)”, for which the “recombinant UMI read abundance (log10)” value worked out at 0.

In the case of “GATTTGACATGGACCGGTTTTCCCGGTAATCCGTATTTGAC (site GATTTGACTGT)”, the “recombinant UMI read abundance (log10)” value stood at 0.525.

Consider “GCAAAAACATGGACCGGTTTTCCCGGTAATCCGTATTTGCT (site GCAAAAACTAG)”, for which the “recombinant UMI read abundance (log10)” value worked out at 0.226.

For “GCAAAAACATGGACCGGTTTTCCCGGTAATCCGTATTTGCT (site GCCAAAACTAG)”, the “recombinant UMI read abundance (log10)” value was 0.

In the case of “GCAAAAACATGGACCGGTTTTCCCGGTAATCCGTATTTGCT (site GCGAAAACTAG)”, the “recombinant UMI read abundance (log10)” value was 0.

For the sequence “GCAAAAACATGGACCGGTTTTCCCGGTAATCCGTATTTGCT (site GCTAAAACTAG)”, the “recombinant UMI read abundance (log10)” value was 0.

In the case of “GCAAACCCATGGACCGGTTTTCCCGGTAATCCGTATTTGAT (site GCAAACCCTAT)”, the “recombinant UMI read abundance (log10)” value turned out to be 1.75.

“GCAAACGCATGGACCGGTTTTCCCGGTAATCCGTATTTGGT (site GCAAACGCTAC)”: the “recombinant UMI read abundance (log10)” value was 1.71.

Consider “GCAAATTCATGGACCGGTTTTCCCGGTAATCCGTATTTGTA (site GCAAATTCTTA)”, for which the “recombinant UMI read abundance (log10)” value came out at 1.32.

For “GCAACTGCATGGACCGGTTTTCCCGGTAATCCGTATTTGCC (site GCAACTGCTGG)”, the “recombinant UMI read abundance (log10)” value turned out to be 0.

“GCAACTGCATGGACCGGTTTTCCCGGTAATCCGTATTTGCC (site GCCACTGCTGG)”: the “recombinant UMI read abundance (log10)” value is 0.

As for “GCAACTGCATGGACCGGTTTTCCCGGTAATCCGTATTTGCC (site GCGACTGCTGG)”, the “recombinant UMI read abundance (log10)” value amounted to 0.

As for “GCAACTGCATGGACCGGTTTTCCCGGTAATCCGTATTTGCC (site GCTACTGCTGG)”, the “recombinant UMI read abundance (log10)” value amounted to 0.

Take “GCAATACCATGGACCGGTTTTCCCGGTAATCCGTATTTGTG (site GCAATACCTCA)”: the “recombinant UMI read abundance (log10)” value turned out to be 0.00804.

For “GCAATTACATGGACCGGTTTTCCCGGTAATCCGTATTTGTC (site GCAATTACTGA)”, the “recombinant UMI read abundance (log10)” value was 0.939.

Take “GCACACCCATGGACCGGTTTTCCCGGTAATCCGTATTTGTT (site GCACACCCTAA)”: the “recombinant UMI read abundance (log10)” value turned out to be 0.67.

As to “GCACATCCATGGACCGGTTTTCCCGGTAATCCGTATTTGAC (site ACACATCCTGT)”, the “recombinant UMI read abundance (log10)” value came out at 2.23.

On to “GCACATCCATGGACCGGTTTTCCCGGTAATCCGTATTTGAC (site CCACATCCTGT)”, for which the “recombinant UMI read abundance (log10)” value was 0.

With “GCACATCCATGGACCGGTTTTCCCGGTAATCCGTATTTGAC (site GCACATCCTGT)”, the “recombinant UMI read abundance (log10)” value is 0.

For the sequence “GCACATCCATGGACCGGTTTTCCCGGTAATCCGTATTTGAC (site TCACATCCTGT)”, the “recombinant UMI read abundance (log10)” value is 0.745.

As to “GCACTTTCATGGACCGGTTTTCCCGGTAATCCGTATTTGGG (site GCACTTTCTCC)”, the “recombinant UMI read abundance (log10)” value was 2.31.

As for “GCAGACTCATGGACCGGTTTTCCCGGTAATCCGTATTTGTT (site GCAGACTCTAA)”, the “recombinant UMI read abundance (log10)” value came out at 3.03.

As for “GCAGATCCATGGACCGGTTTTCCCGGTAATCCGTATTTGCT (site GCAGATCCTAG)”, the “recombinant UMI read abundance (log10)” value stood at 0.

Take “GCAGATTCATGGACCGGTTTTCCCGGTAATCCGTATTTGTT (site GAAGATTCTAA)”: the “recombinant UMI read abundance (log10)” value is 0.

For the sequence “GCAGATTCATGGACCGGTTTTCCCGGTAATCCGTATTTGTT (site GCAGATTCTAA)”, the “recombinant UMI read abundance (log10)” value turned out to be 2.97.

Regarding “GCAGATTCATGGACCGGTTTTCCCGGTAATCCGTATTTGTT (site GGAGATTCTAA)”, the “recombinant UMI read abundance (log10)” value came out at 0.

“GCAGATTCATGGACCGGTTTTCCCGGTAATCCGTATTTGTT (site GTAGATTCTAA)”: the “recombinant UMI read abundance (log10)” value is 0.308.

“GCAGGCCCATGGACCGGTTTTCCCGGTAATCCGTATTTGCT (site GCAGGCCCTAG)”: the “recombinant UMI read abundance (log10)” value stood at 0.921.

Take “GCAGGCGCATGGACCGGTTTTCCCGGTAATCCGTATTTGGT (site GCAGGCGCTAC)”: the “recombinant UMI read abundance (log10)” value turned out to be 0.864.

Turning to “GCAGGTGCATGGACCGGTTTTCCCGGTAATCCGTATTTGAT (site ACAGGTGCTAT)”, the “recombinant UMI read abundance (log10)” value is 2.52.

Regarding “GCAGGTGCATGGACCGGTTTTCCCGGTAATCCGTATTTGAT (site CCAGGTGCTAT)”, the “recombinant UMI read abundance (log10)” value came to 1.91.

With “GCAGGTGCATGGACCGGTTTTCCCGGTAATCCGTATTTGAT (site GCAGGTGCTAT)”, the “recombinant UMI read abundance (log10)” value came to 2.1.

“GCAGGTGCATGGACCGGTTTTCCCGGTAATCCGTATTTGAT (site TCAGGTGCTAT)”: the “recombinant UMI read abundance (log10)” value stood at 1.52.

Turning to “GCAGTATCATGGACCGGTTTTCCCGGTAATCCGTATTTGCA (site ACAGTATCTTG)”, the “recombinant UMI read abundance (log10)” value stood at 2.95.

For the sequence “GCAGTATCATGGACCGGTTTTCCCGGTAATCCGTATTTGCA (site CCAGTATCTTG)”, the “recombinant UMI read abundance (log10)” value came to 2.09.

For the sequence “GCAGTATCATGGACCGGTTTTCCCGGTAATCCGTATTTGCA (site GCAGTATCTTG)”, the “recombinant UMI read abundance (log10)” value worked out at 2.68.

Consider “GCAGTATCATGGACCGGTTTTCCCGGTAATCCGTATTTGCA (site TCAGTATCTTG)”, for which the “recombinant UMI read abundance (log10)” value came out at 1.87.

On to “GCAGTATCATGGACCGGTTTTCCCGGTAATCCGTATTTGGA (site ACAGTATCTTG)”, for which the “recombinant UMI read abundance (log10)” value was 0.785.

Regarding “GCAGTATCATGGACCGGTTTTCCCGGTAATCCGTATTTGGA (site GCAGTATCTTC)”, the “recombinant UMI read abundance (log10)” value is 2.1.

Take “GCATCGACATGGACCGGTTTTCCCGGTAATCCGTATTTGCA (site GCATCGACTTG)”: the “recombinant UMI read abundance (log10)” value is 2.56.

Consider “GCATCTACATGGACCGGTTTTCCCGGTAATCCGTATTTGTG (site ACATCTACTCA)”, for which the “recombinant UMI read abundance (log10)” value worked out at 0.6.

On to “GCATCTACATGGACCGGTTTTCCCGGTAATCCGTATTTGTG (site CCATCTACTCA)”, for which the “recombinant UMI read abundance (log10)” value is 0.104.

For “GCATCTACATGGACCGGTTTTCCCGGTAATCCGTATTTGTG (site GCATCTACTCA)”, the “recombinant UMI read abundance (log10)” value worked out at 0.968.

Consider “GCATCTACATGGACCGGTTTTCCCGGTAATCCGTATTTGTG (site TCATCTACTCA)”, for which the “recombinant UMI read abundance (log10)” value amounted to 1.87.

Take “GCATGCACATGGACCGGTTTTCCCGGTAATCCGTATTTGTA (site GAATGCACTTA)”: the “recombinant UMI read abundance (log10)” value amounted to 0.245.

“GCATGCACATGGACCGGTTTTCCCGGTAATCCGTATTTGTA (site GCATGCACTTA)”: the “recombinant UMI read abundance (log10)” value was 2.41.

Consider “GCATGCACATGGACCGGTTTTCCCGGTAATCCGTATTTGTA (site GGATGCACTTA)”, for which the “recombinant UMI read abundance (log10)” value worked out at 0.364.

On to “GCATGCACATGGACCGGTTTTCCCGGTAATCCGTATTTGTA (site GTATGCACTTA)”, for which the “recombinant UMI read abundance (log10)” value was determined as 1.01.

Take “GCATGCGCATGGACCGGTTTTCCCGGTAATCCGTATTTGTT (site GCATGCGCTAA)”: the “recombinant UMI read abundance (log10)” value turned out to be 1.82.

As to “GCATTGTCATGGACCGGTTTTCCCGGTAATCCGTATTTGCA (site GCATTGTCTTG)”, the “recombinant UMI read abundance (log10)” value was determined as 2.76.

“GCCAAAACATGGACCGGTTTTCCCGGTAATCCGTATTTGCT (site GCAAAAACTAG)”: the “recombinant UMI read abundance (log10)” value amounted to 1.08.

Turning to “GCCAAAACATGGACCGGTTTTCCCGGTAATCCGTATTTGCT (site GCCAAAACTAG)”, the “recombinant UMI read abundance (log10)” value worked out at 1.

For the sequence “GCCAAAACATGGACCGGTTTTCCCGGTAATCCGTATTTGCT (site GCGAAAACTAG)”, the “recombinant UMI read abundance (log10)” value worked out at 0.

As for “GCCAAAACATGGACCGGTTTTCCCGGTAATCCGTATTTGCT (site GCTAAAACTAG)”, the “recombinant UMI read abundance (log10)” value was found to be 0.

As to “GCCAAACCATGGACCGGTTTTCCCGGTAATCCGTATTTGGT (site GACAAACCTAC)”, the “recombinant UMI read abundance (log10)” value was 0.

Turning to “GCCAAACCATGGACCGGTTTTCCCGGTAATCCGTATTTGGT (site GCCAAACCTAC)”, the “recombinant UMI read abundance (log10)” value was 0.

On to “GCCAAACCATGGACCGGTTTTCCCGGTAATCCGTATTTGGT (site GGCAAACCTAC)”, for which the “recombinant UMI read abundance (log10)” value was determined as 0.0048.

Consider “GCCAAACCATGGACCGGTTTTCCCGGTAATCCGTATTTGGT (site GTCAAACCTAC)”, for which the “recombinant UMI read abundance (log10)” value amounted to 0.

On to “GCCAACACATGGACCGGTTTTCCCGGTAATCCGTATTTGAT (site GCCAACACTAT)”, for which the “recombinant UMI read abundance (log10)” value was determined as 1.9.

For “GCCAAGCCATGGACCGGTTTTCCCGGTAATCCGTATTTGGG (site GCAAAGCCTCC)”, the “recombinant UMI read abundance (log10)” value turned out to be 0.00342.

Regarding “GCCAAGCCATGGACCGGTTTTCCCGGTAATCCGTATTTGGG (site GCCAAGCCTCC)”, the “recombinant UMI read abundance (log10)” value was 0.0135.

Turning to “GCCAAGCCATGGACCGGTTTTCCCGGTAATCCGTATTTGGG (site GCGAAGCCTCC)”, the “recombinant UMI read abundance (log10)” value is 0.
